Experimental data: EP0465716A1, “Optically active thiazetoquino-line-3-carboxylic acid compound, method for preparation thereof, and a pharmaceutical composition comprising the same” (priority 1990, dated 1992)
In brackets after ≈: the same amount, converted by molar mass.

Assays:
Assay type in all cases: cell-based
Enterobacter cloacae 963 = assay: MIC, twofold agar dilution method (standard laboratory strain); settings: Enterobacter cloacae 963, Gram -; 10^6 cfu/ml; 18 hrs at 37 °C
Description: (§1) Overnight cultures in Mueller-Hinton broth were suspended by buffered saline gelatin. One loopful of the bacterial suspension (10⁶ or 10⁸ colony-forming units/ml) was incubated onto the plates containing test compounds. The plates were incubated for 18 hrs at 37 °C. The MIC was defined by the lowest concentration of the drug that inhibited visible growth of bacteria.

[1] = system: Escherichia coli NIHJ JC-2; assay: as above; settings: NIHJJC2; Escherichia coli NIHJ JC-2, Gram -; 10^6 cfu/ml; 18 hrs at 37 °C
Description: as §1

[2] = system: Pseudomonas aeruginosa IFO 3445; assay: as above; settings: IFO3445; Pseudomonas aeruginosa IFO 3445, Gram -; 10^6 cfu/ml; 18 hrs at 37 °C
Description: as §1

[3] = system: Serratia marcescens IAM 1184; assay: as above; settings: IAM1184; Serratia marcescens IAM 1184, Gram -; 10^6 cfu/ml; 18 hrs at 37 °C
Description: as §1

[4] = system: Staphylococuss aureus FDA 209PJC-1; assay: as above; settings: Staphylococuss aureus FDA 209PJC-1, Gram +; 10^6 cfu/ml; 18 hrs at 37 °C
Description: as §1

[5] = system: Klebsiella pneumoniae PCI-602; assay: as above; settings: PCI602; Klebsiella pneumoniae PCI-602, Gram -; 10^6 cfu/ml; 18 hrs at 37 °C; read-out: MIC
Description: as §1, with “Minimum inhibitory concentrations (MIC) of test compounds were determined by the twofold agar dilution method (Chemotherapy, 29(1), 76(1981)). Overnight” for “Overnight”

[6] = system: Acinetobacter calcoaceticus HNR 904; assay: MIC, twofold agar dilution method (clinically isolated strain); settings: HNR904; Acinetobacter calcoaceticus HNR 904, Gram -; 10^6 cfu/ml; 18 hrs at 37 °C
Description: as §1

[7] = system: Acinetobacter calcoaceticus HNR 916; assay: as above; settings: HNR916; Acinetobacter calcoaceticus HNR 916, Gram -; 10^6 cfu/ml; 18 hrs at 37 °C
Description: as §1

[8] = system: Acinetobacter calcoaceticus HNR 939; assay: as above; settings: HNR939; Acinetobacter calcoaceticus HNR 939, Gram -; 10^6 cfu/ml; 18 hrs at 37 °C
Description: as §1

[9] = system: Enterobacter cloacae HNR 1939; assay: as above; settings: HNR1939; Enterobacter cloacae HNR 1939, Gram -; 10^6 cfu/ml; 18 hrs at 37 °C
Description: as §1

[10] = system: Enterobacter cloacae HNR 1941; assay: as above; settings: HNR1941; Enterobacter cloacae HNR 1941, Gram -; 10^6 cfu/ml; 18 hrs at 37 °C
Description: as §1

[11] = system: Enterobacter cloacae HNR 1946; assay: as above; settings: HNR1946; Enterobacter cloacae HNR 1946, Gram -; 10^6 cfu/ml; 18 hrs at 37 °C
Description: as §1

[12] = system: Enterococcus faecalis HPC 948; assay: as above; settings: HPC948; Enterococcus faecalis HPC 948, Gram +; 10^6 cfu/ml; 18 hrs at 37 °C
Description: as §1

[13] = system: Enterococcus faecalis HPC 975; assay: as above; settings: HPC975; Enterococcus faecalis HPC 975, Gram +; 10^6 cfu/ml; 18 hrs at 37 °C
Description: as §1

[14] = system: Enterococcus faecalis HPC 984; assay: as above; settings: HPC984; Enterococcus faecalis HPC 984, Gram +; 10^6 cfu/ml; 18 hrs at 37 °C
Description: as §1

[15] = system: Klebsiella pneumoniae HNR 828; assay: as above; settings: HNR828; Klebsiella pneumoniae HNR 828, Gram -; 10^6 cfu/ml; 18 hrs at 37 °C
Description: as §1

[16] = system: Klebsiella pneumoniae HNR 858; assay: as above; settings: HNR858; Klebsiella pneumoniae HNR 858, Gram -; 10^6 cfu/ml; 18 hrs at 37 °C
Description: as §1

[17] = system: Klebsiella pneumoniae HNR 869; assay: as above; settings: HNR869; Klebsiella pneumoniae HNR 869, Gram -; 10^6 cfu/ml; 18 hrs at 37 °C
Description: as §1

[18] = system: Pseudomonas aeruginosa HNR 1472; assay: as above; settings: HNR1472; Pseudomonas aeruginosa HNR 1472, Gram -; 10^6 cfu/ml; 18 hrs at 37 °C
Description: as §1

[19] = system: Pseudomonas aeruginosa HNR 1489; assay: as above; settings: HNR1489; Pseudomonas aeruginosa HNR 1489, Gram -; 10^6 cfu/ml; 18 hrs at 37 °C
Description: as §1

[20] = system: Pseudomonas aeruginosa HNR 1537; assay: as above; settings: HNR1537; Pseudomonas aeruginosa HNR 1537, Gram -; 10^6 cfu/ml; 18 hrs at 37 °C
Description: as §1

[21] = system: Serratia marcescens HNR 1544; assay: as above; settings: HNR1544; Serratia marcescens HNR 1544, Gram -; 10^6 cfu/ml; 18 hrs at 37 °C
Description: as §1

[22] = system: Serratia marcescens HNR 1767; assay: as above; settings: HNR1767; Serratia marcescens HNR 1767, Gram -; 10^6 cfu/ml; 18 hrs at 37 °C
Description: as §1

[23] = system: Serratia marcescens HNR 1792; assay: as above; settings: HNR1792; Serratia marcescens HNR 1792, Gram -; 10^6 cfu/ml; 18 hrs at 37 °C
Description: as §1

[24] = system: Staphylococcuss aureus HPC 292; assay: as above; settings: Staphylococcuss aureus HPC 292, Gram +; 10^6 cfu/ml; 18 hrs at 37 °C
Description: as §1

[25] = system: Staphylococcuss aureus HPC 308; assay: as above; settings: Staphylococcuss aureus HPC 308, Gram +; 10^6 cfu/ml; 18 hrs at 37 °C
Description: as §1

[26] = system: Staphylococcuss aureus HPC 527; assay: as above; settings: Staphylococcuss aureus HPC 527, Gram +; 10^6 cfu/ml; 18 hrs at 37 °C
Description: as §1

SMILES	MIC (Enterobacter cloacae 963) [µg/mL]	MIC [1] [µg/mL]	MIC [2] [µg/mL]	MIC [3] [µg/mL]	MIC [4] [µg/mL]	MIC [5] [µg/mL]	MIC [6] [µg/mL]	MIC [7] [µg/mL]	MIC [8] [µg/mL]	MIC [9] [µg/mL]	MIC [10] [µg/mL]	MIC [11] [µg/mL]	MIC [12] [µg/mL]	MIC [13] [µg/mL]	MIC [14] [µg/mL]	MIC [15] [µg/mL]	MIC [16] [µg/mL]	MIC [17] [µg/mL]	MIC [18] [µg/mL]	MIC [19] [µg/mL]	other results
CC1Sc2c(C(=O)O)c(=O)c3cc(F)c(N4CC[C@@H](N)C4)c(F)c3n21 (single isomer, unassigned) [Example 26]	0.05 (≈ 0.136 µM)	0.025 (≈ 0.068 µM)	0.1 (≈ 0.272 µM)	0.05 (≈ 0.136 µM)	0.05 (≈ 0.136 µM)	0.012 (≈ 0.0327 µM)	25 (≈ 68 µM)	0.1 (≈ 0.272 µM)	0.78 (≈ 2.12 µM)	0.1 (≈ 0.272 µM)	3.13 (≈ 8.52 µM)	0.2 (≈ 0.544 µM)	0.39 (≈ 1.06 µM)	3.13 (≈ 8.52 µM)	0.1 (≈ 0.272 µM)	1.56 (≈ 4.25 µM)	0.2 (≈ 0.544 µM)	0.78 (≈ 2.12 µM)	6.25 (≈ 17 µM)	0.1 (≈ 0.272 µM)	MIC [20]: 6.25 µg/mL (≈ 17 µM); MIC [21]: 0.05 µg/mL (≈ 0.136 µM); MIC [22]: 6.25 µg/mL (≈ 17 µM); MIC [23]: 1.56 µg/mL (≈ 4.25 µM); MIC [24]: 3.13 µg/mL (≈ 8.52 µM); MIC [25]: 0.78 µg/mL (≈ 2.12 µM); MIC [26]: 0.05 µg/mL (≈ 0.136 µM)
CC1Sc2c(C(=O)O)c(=O)c3cc(F)c(N4CCNCC4)cc3n21 (stereo not drawn) [Ref. Drug B, 6-fluoro-1-methyl-4-oxo-7-(1-piperazinyl)-1H,4H-[1,3]thiazeto[3,2-a]quinoline-3-carboxylic acid]	0.05 (≈ 0.143 µM)	0.025 (≈ 0.0716 µM)	0.2 (≈ 0.572 µM)	0.05 (≈ 0.143 µM)	0.1 (≈ 0.286 µM)	0.012 (≈ 0.0343 µM)	> 100	0.78 (≈ 2.23 µM)	6.25 (≈ 17.9 µM)	0.2 (≈ 0.572 µM)	12.5 (≈ 35.8 µM)	0.39 (≈ 1.12 µM)	6.25 (≈ 17.9 µM)	50 (≈ 143 µM)	0.78 (≈ 2.23 µM)	1.56 (≈ 4.46 µM)	0.2 (≈ 0.572 µM)	0.78 (≈ 2.23 µM)	6.25 (≈ 17.9 µM)	0.1 (≈ 0.286 µM)	MIC [20]: 6.25 µg/mL (≈ 17.9 µM); MIC [21]: 0.05 µg/mL (≈ 0.143 µM); MIC [22]: 50 µg/mL (≈ 143 µM); MIC [23]: 6.25 µg/mL (≈ 17.9 µM); MIC [24]: 50 µg/mL (≈ 143 µM); MIC [25]: 25 µg/mL (≈ 71.6 µM); MIC [26]: 0.39 µg/mL (≈ 1.12 µM)
NC1CCN(c2c(F)cc3c(=O)c(C(=O)O)c4n(c3c2F)CS4)C1 (stereo not drawn) [Ref. Drug E, 7-(3-amino-1-pyrrolidinyl)-6,8-difluoro-4-oxo-1H,4H-[1,3]thiazeto[3,2-a]quinoline-3-carboxylic acid]	0.1 (≈ 0.283 µM)	0.1 (≈ 0.283 µM)	0.2 (≈ 0.566 µM)	0.2 (≈ 0.566 µM)	0.1 (≈ 0.283 µM)	0.05 (≈ 0.142 µM)	> 100	0.39 (≈ 1.1 µM)	> 100	0.78 (≈ 2.21 µM)	> 100	1.56 (≈ 4.41 µM)	50 (≈ 142 µM)	> 100	0.78 (≈ 2.21 µM)	50 (≈ 142 µM)	0.78 (≈ 2.21 µM)	50 (≈ 142 µM)	> 100	0.39 (≈ 1.1 µM)	MIC [20]: > 100 µg/mL; MIC [21]: 0.1 µg/mL (≈ 0.283 µM); MIC [22]: > 100 µg/mL; MIC [23]: > 100 µg/mL; MIC [24]: > 100 µg/mL; MIC [25]: 100 µg/mL (≈ 283 µM); MIC [26]: 0.2 µg/mL (≈ 0.566 µM)
